Measured values reported in publication PMC7365463, “Oxfendazole mediates macrofilaricidal efficacy against the filarial nematode Litomosoides sigmodontis in vivo and inhibits Onchocerca spec. motility in vitro” (PLoS Neglected Tropical Diseases, 2020).
Like-named read-outs stand apart in the source and are kept apart here.

Assays:
[1] = test system: Onchocerca gutturosa adult male worms; assay: O. gutturosa adult worm MTT/formazan viability assay; conditions: 120 h
[2] = test system: Onchocerca gutturosa adult male worms; assay: O. gutturosa adult male worm 5-day motility assay; conditions: for activity against adult O. gutturosa: metabolites of oxfendazole, less potent compared to oxfendazole
[3] = test system: Onchocerca lienalis microfilariae; assay: O. lienalis microfilariae 5-day motility assay; conditions: 120 h
Brugia pahangi [4] = test system: Brugia pahangi; design: method as in Devaney 1985 (Ref. 8); conditions: 50L3, balb/c, SC 10 or 50 mg/kg 5 cons. days, 4 days p.i., necropsy 3-4 weeks p.t.; ref Devaney 1985 (Ref. 8); cited from earlier work
Litomosoides sigmodontis [5] = test system: Litomosoides sigmodontis; design: method as in Reddy 1983 (Ref. 15); conditions: L3 (mite), Mastomys natalensis, patent phase, necropsy 43 days p.t., ref Reddy 1983 (Ref. 15), cited from earlier work
Brugia pahangi [6] = conditions: L3, cats, patent phase, necropsy 42 days p.t., ref Denham 1980 (Ref. 5), cited from earlier work
Brugia pahangi [7] = conditions: jirds, cited from earlier work
Brugia pahangi [8] = test system: Brugia pahangi; design: method as in Reddy 1983 (Ref. 15); conditions: L3 (SC), Mastomys natalensis, patent phase, necropsy 43 days p.t., ref Reddy 1983 (Ref. 15), cited from earlier work
Litomosoides sigmodontis [9] = test system: Litomosoides sigmodontis; design: method as in Shibuya 1979 (Ref. 12); conditions: cotton rat, ref Shibuya 1979 (Ref. 12), cited from earlier work
Breinlia booliati = test system: Breinlia booliati; design: method as in Mak 1981 (Ref. 7); conditions: 100L3 (SC), rats, SC 10mg/kg 5 cons. days, patent phase, necropsy 4 weeks p.t.; ref Mak 1981 (Ref. 7); cited from earlier work
[10] = test system: L. sigmodontis microfilariae; assay: L. sigmodontis microfilariae-injected naïve mice; assay type: in vivo, Litomosoides sigmodontis; conditions: single intraperitoneal injection 5 mg/kg
Experimental: To investigate the in vivo efficacy of oxfendazole on microfilariae, microfilariae were isolated from peripheral blood of L. sigmodontis-infected cotton rats according to Chandrashekar et al. (1984) using a sucrose percoll gradient. 100,000 microfilariae were injected into the tail vein of naïve mice as previously described. Microfilariae-injected mice were treated with a commercial formulation of oxfendazole (Dolthene) twice daily with 2 x 12.5 mg/kg per os. As a positive control, additional mice were treated with a single intraperitoneal dose of ivermectin (5 mg/kg) in DMSO/PEG400/H20dest with a ratio of 1:7:2 according to Halliday et al.. Control animals received no treatment.

Cl.Cl.NCCS[As](SCCN)c1ccc(Nc2nc(N)nc(N)n2)cc1 [Immiticide, melarsomine dihydrochloride]
MTT Reduction (%) ([1]; 1.25 x 10^-5 M): 91%
MTT Reduction (%) ([1]; 1.9 x 10^-7 M): 51%
MTT Reduction (%) ([1]; 3.1 x 10^-6 M): 94%
MTT Reduction (%) ([1]; 7.8 x 10^-7 M): 79%
Motility Reduction (%) ([2]; 1.25 x 10^-5 M, 48 h): 100%
Motility Reduction (%) ([2]; 1.25 x 10^-5 M, 72 h): 100%
Motility Reduction (%) ([2]; 1.25 x 10^-5 M, 96 h): 100%
Motility Reduction (%) ([2]; 1.25 x 10^-5 M, 120 h): 100%
Motility Reduction (%) ([2]; 1.9 x 10^-7 M, 24 h): 4%
Motility Reduction (%) ([2]; 1.9 x 10^-7 M, 48 h): 9%
Motility Reduction (%) ([2]; 1.9 x 10^-7 M, 72 h): 33%
Motility Reduction (%) ([2]; 1.9 x 10^-7 M, 96 h): 44%
Motility Reduction (%) ([2]; 1.9 x 10^-7 M, 120 h): 44%
Motility Reduction (%) ([2]; 3.1 x 10^-6 M, 48 h): 100%
Motility Reduction (%) ([2]; 3.1 x 10^-6 M, 72 h): 100%
Motility Reduction (%) ([2]; 3.1 x 10^-6 M, 96 h): 100%
Motility Reduction (%) ([2]; 3.1 x 10^-6 M, 120 h): 100%
Motility Reduction (%) ([2]; 7.8 x 10^-7 M, 24 h): 49%
Motility Reduction (%) ([2]; 7.8 x 10^-7 M, 48 h): 74%
Motility Reduction (%) ([2]; 7.8 x 10^-7 M, 72 h): 93%
Motility Reduction (%) ([2]; 7.8 x 10^-7 M, 120 h): 100%
effect on microfilariae motility ([3]; concentrations equal or above 3.1·10^−6 M): completely inhibited microfilariae motility

CCCSc1ccc2nc(NC(=O)OC)[nH]c2c1 [albendazole]
Reduction of worm burden (Brugia pahangi [4]): 100%
Reduction of worm burden (Litomosoides sigmodontis [5]; SC 100mg/kg 5 cons. days): 100%
Reduction of worm burden (Litomosoides sigmodontis [5]; per os 150mg/kg 5 cons. days): 0%
Reduction of worm burden (Brugia pahangi [6]; SC 25mg/kg 5 cons. days): 50%
Reduction of worm burden (Brugia pahangi [6]; SC 50mg/kg 5 cons. days): 100%
Reduction of worm burden (Brugia pahangi [6]; SC 100mg/kg 5 cons. days): 100%
Reduction of worm burden (Brugia pahangi [7]; 15Ad (IP), SC 50mg/kg 5 cons. days, necropsy 4-5 weeks p.t., ref Denham 1980 (Ref. 5)): 100%
Reduction of worm burden (Brugia pahangi [7]; 15Ad (IP), SC 25-12.5mg/kg 5 cons. days, necropsy 4-5 weeks p.t., ref Denham 1980 (Ref. 5)): 80-90%
Reduction of worm burden (Brugia pahangi [7]; 15Ad (IP), SC 50-25mg/kg 5 cons. days, 4 days p.i., necropsy 5 weeks p.t., ref Surin 1990 (Ref. 11)): 100%
Reduction of worm burden (Brugia pahangi [7]; 15Ad (IP), SC <6,25mg/kg 5 cons. days, necropsy 4-5 weeks p.t., ref Denham 1980 (Ref. 5)): <30%
Reduction of worm burden (Brugia pahangi [7]; 50L3 (IP), SC 50-25mg/kg 5 cons. days, 70 days p.i., necropsy 5 weeks p.t., ref Surin 1990 (Ref. 11)): 90%
MTT Reduction (%) ([1]; 1.25 x 10^-5 M): 28%
MTT Reduction (%) ([1]; 3.1 x 10^-6 M): 19%
MTT Reduction (%) ([1]; 5.0 x 10^-5 M): 47%
MTT Reduction (%) ([1]; 7.8 x 10^-7 M): 18%
Reduction of worm burden (Brugia pahangi [8]; SC 100mg/kg 5 cons. days): 100%
Reduction of worm burden (Brugia pahangi [8]; per os 150mg/kg 5 cons. days): 50%
Motility Reduction (%) ([2]; 1.25 x 10^-5 M, 24 h): 10%
Motility Reduction (%) ([2]; 1.25 x 10^-5 M, 48 h): 12%
Motility Reduction (%) ([2]; 1.25 x 10^-5 M, 72 h): 27%
Motility Reduction (%) ([2]; 1.25 x 10^-5 M, 96 h): 38%
Motility Reduction (%) ([2]; 1.25 x 10^-5 M, 120 h): 40%
Motility Reduction (%) ([2]; 3.1 x 10^-6 M, 24 h): 10%
Motility Reduction (%) ([2]; 3.1 x 10^-6 M, 48 h): 5%
Motility Reduction (%) ([2]; 3.1 x 10^-6 M, 72 h): 16%
Motility Reduction (%) ([2]; 3.1 x 10^-6 M, 96 h): 26%
Motility Reduction (%) ([2]; 3.1 x 10^-6 M, 120 h): 40%
Motility Reduction (%) ([2]; 5.0 x 10^-5 M, 24 h): 10%
Motility Reduction (%) ([2]; 5.0 x 10^-5 M, 48 h): 12%
Motility Reduction (%) ([2]; 5.0 x 10^-5 M, 72 h): 29%
Motility Reduction (%) ([2]; 5.0 x 10^-5 M, 96 h): 40%
Motility Reduction (%) ([2]; 5.0 x 10^-5 M, 120 h): 47%
Motility Reduction (%) ([2]; 7.8 x 10^-7 M, 24 h): 10%
Motility Reduction (%) ([2]; 7.8 x 10^-7 M, 48 h): 9%
Motility Reduction (%) ([2]; 7.8 x 10^-7 M, 72 h): 13%
Motility Reduction (%) ([2]; 7.8 x 10^-7 M, 96 h): 33%
Motility Reduction (%) ([2]; 7.8 x 10^-7 M, 120 h): 33%
activity against microfilariae compared to oxfendazole [3]: even less active

COC(=O)Nc1nc2ccc(S(=O)(=O)c3ccccc3)cc2[nH]1 [fenbendazole sulfone]
activity against adult O. gutturosa [2]: active

COC(=O)Nc1nc2ccc(Sc3ccccc3)cc2[nH]1 [fenbendazole]
activity against adult O. gutturosa [2]: active

COC(=O)Nc1nc2ccc(C(=O)c3ccccc3)cc2[nH]1 [meb, mebendazole]
Reduction of worm burden (Litomosoides sigmodontis [9]; IP 1mg/kg 3 cons.days, patent phase, necropsy 4 weeks p.t.): 50%
Reduction of worm burden (Litomosoides sigmodontis [9]; IP 10mg/kg 3 cons.days, patent phase, necropsy 4 weeks p.t.): 100%
Reduction of worm burden (Litomosoides sigmodontis [9]; IP 100mg/kg x1, patent phase, necropsy 4 weeks p.t.): 100%
Reduction of worm burden (Litomosoides sigmodontis [9]; IT 0.1mg/kg 3 cons.days, patent phase, necropsy 5 weeks p.t.): 0%
Reduction of worm burden (Litomosoides sigmodontis [9]; IT 1mg/kg 3 cons.days, patent phase, necropsy 5 weeks p.t.): 100%
Reduction of worm burden (Litomosoides sigmodontis [9]; IT 10mg/kg 3 cons.days, patent phase, necropsy 3 weeks p.t.): 20%
Reduction of worm burden (Litomosoides sigmodontis [9]; IT 10mg/kg 3 cons.days, patent phase, necropsy 5 weeks p.t.): 100%
Reduction of worm burden (Litomosoides sigmodontis [9]; IT 10mg/kg 4 cons.days, patent phase, necropsy 4 weeks p.t.): 0%
Reduction of worm burden (Litomosoides sigmodontis [9]; IT 25mg/kg x1, patent phase, necropsy 5 weeks p.t.): 75%
Reduction of worm burden (Litomosoides sigmodontis [9]; IT 100mg/kg x1, patent phase, necropsy 5 weeks p.t.): 85%
Reduction of worm burden (Litomosoides sigmodontis [5]; SC 100mg/kg 5 cons. days): 100%
Reduction of worm burden (Litomosoides sigmodontis [5]; per os 150mg/kg 5 cons. days): 70%
Reduction of worm burden (Brugia pahangi [7]; 15Ad (IP), SC 25-12,5mg/kg 5 cons. days, 4 days p.i., necropsy 5 weeks p.t., ref Surin 1990 (Ref. 11)): 100%
Reduction of worm burden (Brugia pahangi [7]; 50L3 (IP), SC 25mg/kg 5 cons. days, 70 days p.i., necropsy 5 weeks p.t., ref Surin 1990 (Ref. 11)): 97%
Reduction of worm burden (Brugia pahangi [7]; 50L3 (IP), SC 12,5mg/kg 5 cons. days, 70 days p.i., necropsy 5 weeks p.t., ref Surin 1990 (Ref. 11)): 78.5%
Reduction of worm burden (Brugia pahangi [7]; 100L3 (IP), SC 50mg/kg 5 cons.days, 3 months p.i., necropsy 15 days p.t., ref Denham 1978 (Ref. 3)): 70%
Reduction of worm burden (Brugia pahangi [7]; 100L3 (IP), SC 50mg/kg 5 cons.days, 3 months p.i., necropsy 20 days p.t., ref Denham 1978 (Ref. 3)): 100%
Reduction of worm burden (Brugia pahangi [7]; 100L3 (IP), SC 50mg/kg 5 cons.days, 3 months p.i., necropsy 30 days p.t., ref Denham 1978 (Ref. 3)): 100%
Reduction of worm burden (Brugia pahangi [8]; SC 100mg/kg 5 cons. days): 100%
Reduction of worm burden (Brugia pahangi [8]; per os 150mg/kg 5 cons. days): 0%
Reduction of worm burden (Breinlia booliati): 83%

ivermectin
microfilaremia ([10]; by 6 h after treatment): statistically significant reduction of microfilaremia
microfilaremia ([10]; from day four after treatment until end of experiment): microfilariae negative
